In patent publication KR20230059409A, “Egf 유래 신규 펩타이드 및 이의 용도” (고려대학교 산학협력단, priority 2021, dated 2023):
No end group written: not given here.

Experiments:
hMSC = test: 2D traction force microscope stem cell migration test; assay type: cell-based, human; conditions: 24 h imaging; for effect on stem cell mobility (conclusion of the test): hMSC
인간유래 중간엽줄기세포(hMSC) = test: 3D spheroid stem cell migration test (branch sprouting in collagen matrix); assay type: cell-based, human; conditions: peptide in DMEM 10uM / 100uM, 37℃, 16 h; for extent of stem cell branches extending from 3D spheroid (Fig. 2): compared with EGF group or DMEM only

NTKVGYIGEREQYRDLK-NH2 [EGP2]
stem cell migration speed (Fig. 7 and 8) (hMSC; hMSC on collagen-coated PA gel with fluorescent beads, compared among EGF, EGP 2, JEP 4 media): 속도가 가장 빠른 것으로 나타났다 | effect on stem cell mobility (conclusion of the test) (hMSC): 줄기세포의 이동성을 증진시키는 효과가 있음 | length of stem cell branches extending from 3D spheroid, quantified (Fig. 3) (인간유래 중간엽줄기세포(hMSC)): 줄기세포 가지가 상대적으로 긴 것으로 나타났다 | extent of stem cell branches extending from 3D spheroid (Fig. 2) (인간유래 중간엽줄기세포(hMSC)): 줄기세포 가지가 가장 많이 뻗어나간 것을 확인

YCLHDGVSMYIEALDKYACN [JEP4]
effect on stem cell mobility (conclusion of the test) (hMSC): 줄기세포의 이동성을 증진시키는 효과가 있음 | length of stem cell branches extending from 3D spheroid, quantified (Fig. 3) (인간유래 중간엽줄기세포(hMSC)): 줄기세포 가지가 상대적으로 긴 것으로 나타났다 | extent of stem cell branches extending from 3D spheroid (Fig. 2) (인간유래 중간엽줄기세포(hMSC)): 줄기세포 가지가 가장 많이 뻗어나간 것을 확인
